# In ChEMBL document CHEMBL3044921, “Synthesis, characterization, and SAR studies of new (1H-indol-3-yl)alkyl-3-(1H-indol-3-yl)propanamide derivatives as possible antimicrobial and antitubercular agents” (2013):
# Tested on: Aspergillus flavus
# Test: Antifungal activity against Aspergillus flavus NCIM 524 assessed as growth inhibition after 3 to 4 days by serial plate dilution method
# Format: functional
# Settings: not given
row,SMILES,MIC
1,Cc1c(CNC(=O)CCc2cn(C)c3ccc(Cl)cc23)c2cc(OC(F)(F)F)ccc2n1C,25 µg/mL
2,Cc1cc(C2CCCCC2)n(O)c(=O)c1.NCCO [CICLOPIROX OLAMINE],6.25 µg/mL

# Tested on: Staphylococcus aureus
# Test: Antibacterial activity against Staphylococcus aureus ATCC 25923 assessed as growth inhibition after 16 to 18 hr by serial plate dilution method
# Format: functional
# Settings: not given
row,SMILES,MIC
1,Cc1c(CNC(=O)CCc2cn(C)c3ccc(Cl)cc23)c2cc(OC(F)(F)F)ccc2n1C,12.5 µg/mL

# Tested on: Mycobacterium tuberculosis
# Test: Antitubercular activity against Mycobacterium tuberculosis H37Rv ATCC 27294 assessed as growth inhibition at 0.3125 to 5 ug/mL after 7 days by resazurin reduction test
# Format: functional
# Settings: H37Rv ATCC 27294, 168 h
row,SMILES,MIC
1,Cc1c(CNC(=O)CCc2cn(C)c3ccc(Cl)cc23)c2cc(OC(F)(F)F)ccc2n1C,5 µg/mL

# Tested on: Klebsiella pneumoniae
# Test: Antibacterial activity against Klebsiella pneumoniae assessed as growth inhibition after 16 to 18 hr by serial plate dilution method
# Format: functional
# Settings: not given
row,SMILES,MIC
1,Cc1c(CNC(=O)CCc2cn(C)c3ccc(Cl)cc23)c2cc(OC(F)(F)F)ccc2n1C,12.5 µg/mL
2,O=C(O)c1cn(C2CC2)c2cc(N3CCNCC3)c(F)cc2c1=O [CIPROFLOXACIN],1.56 µg/mL

# Tested on: Trichophyton mentagrophytes
# Test: Antifungal activity against Trichophyton mentagrophytes assessed as growth inhibition at […] to […] ug/ml after 3 to 4 days by agar well diffusion method
# Format: functional
# Settings: not given
row,SMILES,diameter of the inhibition zone (DIZ)
1,Cc1c(CNC(=O)CCc2cn(C)c3ccc(Cl)cc23)c2cc(OC(F)(F)F)ccc2n1C,16 mm
2,Cc1cc(C2CCCCC2)n(O)c(=O)c1.NCCO [CICLOPIROX OLAMINE],27 mm

# Tested on: Streptococcus pyogenes
# Test: Antibacterial activity against Streptococcus pyogenes assessed as growth inhibition after 16 to 18 hr by serial plate dilution method
# Format: functional
# Settings: not given
row,SMILES,MIC
1,Cc1c(CNC(=O)CCc2cn(C)c3ccc(Cl)cc23)c2cc(OC(F)(F)F)ccc2n1C,25 µg/mL
2,O=C(O)c1cn(C2CC2)c2cc(N3CCNCC3)c(F)cc2c1=O [CIPROFLOXACIN],6.25 µg/mL

# Tested on: Mycolicibacterium smegmatis
# Test: Antitubercular activity against Mycobacterium smegmatis ATCC 19420 assessed as growth inhibition at 1 to 100 ug/mL after 7 days by resazurin reduction test
# Format: functional
# Settings: ATCC 19420, 168 h
row,SMILES,MIC
1,Cc1c(CNC(=O)CCc2cn(C)c3ccc(Cl)cc23)c2cc(OC(F)(F)F)ccc2n1C,10 µg/mL

# Tested on: Pseudomonas aeruginosa
# Test: Antibacterial activity against Pseudomonas aeruginosa ATCC 27853 assessed as growth inhibition after 16 to 18 hr by serial plate dilution method
# Format: functional
# Settings: not given
row,SMILES,MIC
1,Cc1c(CNC(=O)CCc2cn(C)c3ccc(Cl)cc23)c2cc(OC(F)(F)F)ccc2n1C,25 µg/mL

# Tested on: Candida albicans
# Test: Antifungal activity against Candida albicans assessed as growth inhibition after 3 to 4 days by serial plate dilution method
# Format: functional
# Settings: not given
row,SMILES,MIC
1,Cc1c(CNC(=O)CCc2cn(C)c3ccc(Cl)cc23)c2cc(OC(F)(F)F)ccc2n1C,12.5 µg/mL
2,Cc1cc(C2CCCCC2)n(O)c(=O)c1.NCCO [CICLOPIROX OLAMINE],6.25 µg/mL

# Tested on: Aspergillus fumigatus
# Test: Antifungal activity against Aspergillus fumigatus NCIM 902 assessed as growth inhibition after 3 to 4 days by serial plate dilution method
# Format: functional
# Settings: not given
row,SMILES,MIC
1,Cc1c(CNC(=O)CCc2cn(C)c3ccc(Cl)cc23)c2cc(OC(F)(F)F)ccc2n1C,6.25 µg/mL
2,Cc1cc(C2CCCCC2)n(O)c(=O)c1.NCCO [CICLOPIROX OLAMINE],6.25 µg/mL

# Tested on: Trichophyton mentagrophytes
# Test: Antifungal activity against Trichophyton mentagrophytes assessed as growth inhibition after 3 to 4 days by serial plate dilution method
# Format: functional
# Settings: not given
row,SMILES,MIC
1,Cc1c(CNC(=O)CCc2cn(C)c3ccc(Cl)cc23)c2cc(OC(F)(F)F)ccc2n1C,6.25 µg/mL
2,Cc1cc(C2CCCCC2)n(O)c(=O)c1.NCCO [CICLOPIROX OLAMINE],6.25 µg/mL

# Tested on: Pseudomonas aeruginosa
# Format: functional, ATCC 27853
# Settings: not given
row,SMILES,diameter of the inhibition zone (DIZ)
1,Cc1c(CNC(=O)CCc2cn(C)c3ccc(Cl)cc23)c2cc(OC(F)(F)F)ccc2n1C,<10 mm
2,O=C(O)c1cn(C2CC2)c2cc(N3CCNCC3)c(F)cc2c1=O [CIPROFLOXACIN],16 mm

# Tested on: Mycobacterium tuberculosis
# Test: Antitubercular activity against Mycobacterium tuberculosis H37Rv ATCC 27294 assessed as growth inhibition at 1 to 100 ug/mL after 7 days by resazurin reduction test
# Format: functional
# Settings: not given
row,SMILES,growth inhibition (GI)
1,Cc1c(CNC(=O)CCc2cn(C)c3ccc(Cl)cc23)c2cc(OC(F)(F)F)ccc2n1C,<90%

# Same assay, conditions: Mycobacterium tuberculosis, H37Rv ATCC 27294, 168 h
row,SMILES,MIC
1,Cc1c(CNC(=O)CCc2cn(C)c3ccc(Cl)cc23)c2cc(OC(F)(F)F)ccc2n1C,> 100 µg/mL

# Tested on: Staphylococcus aureus
# Format: functional, ATCC 25923
# Settings: not given
row,SMILES,diameter of the inhibition zone (DIZ)
1,Cc1c(CNC(=O)CCc2cn(C)c3ccc(Cl)cc23)c2cc(OC(F)(F)F)ccc2n1C,11 mm
2,O=C(O)c1cn(C2CC2)c2cc(N3CCNCC3)c(F)cc2c1=O [CIPROFLOXACIN],30 mm

# Tested on: Mycolicibacterium fortuitum
# Test: Antitubercular activity against Mycobacterium fortuitum ATCC 19542 assessed as growth inhibition at 1 to 100 ug/mL after 7 days by resazurin reduction test
# Format: functional
# Settings: ATCC 19542, 168 h
row,SMILES,MIC
1,Cc1c(CNC(=O)CCc2cn(C)c3ccc(Cl)cc23)c2cc(OC(F)(F)F)ccc2n1C,> 100 µg/mL

# Tested on: Aspergillus flavus
# Test: Antifungal activity against Aspergillus flavus NCIM 524 assessed as growth inhibition at […] to […] ug/ml after 3 to 4 days by agar well diffusion method
# Format: functional
# Settings: not given
row,SMILES,diameter of the inhibition zone (DIZ)
1,Cc1c(CNC(=O)CCc2cn(C)c3ccc(Cl)cc23)c2cc(OC(F)(F)F)ccc2n1C,<10 mm
2,Cc1cc(C2CCCCC2)n(O)c(=O)c1.NCCO [CICLOPIROX OLAMINE],25 mm

# Tested on: Talaromyces marneffei
# Test: Antifungal activity against Talaromyces marneffei assessed as growth inhibition after 3 to 4 days by serial plate dilution method
# Format: functional
# Settings: not given
row,SMILES,MIC
1,Cc1c(CNC(=O)CCc2cn(C)c3ccc(Cl)cc23)c2cc(OC(F)(F)F)ccc2n1C,25 µg/mL
2,Cc1cc(C2CCCCC2)n(O)c(=O)c1.NCCO [CICLOPIROX OLAMINE],6.25 µg/mL

# Tested on: Talaromyces marneffei
# Test: Antifungal activity against Talaromyces marneffei assessed as growth inhibition at […] to […] ug/ml after 3 to 4 days by agar well diffusion method
# Format: functional
# Settings: not given
row,SMILES,diameter of the inhibition zone (DIZ)
1,Cc1c(CNC(=O)CCc2cn(C)c3ccc(Cl)cc23)c2cc(OC(F)(F)F)ccc2n1C,<10 mm
2,Cc1cc(C2CCCCC2)n(O)c(=O)c1.NCCO [CICLOPIROX OLAMINE],20 mm

# Tested on: Aspergillus fumigatus
# Test: Antifungal activity against Aspergillus fumigatus NCIM 902 assessed as growth inhibition at […] to […] ug/ml after 3 to 4 days by agar well diffusion method
# Format: functional
# Settings: not given
row,SMILES,diameter of the inhibition zone (DIZ)
1,Cc1c(CNC(=O)CCc2cn(C)c3ccc(Cl)cc23)c2cc(OC(F)(F)F)ccc2n1C,16 mm
2,Cc1cc(C2CCCCC2)n(O)c(=O)c1.NCCO [CICLOPIROX OLAMINE],25 mm

# Tested on: Escherichia coli
# Format: functional, ATCC 24922
# Settings: not given
row,SMILES,diameter of the inhibition zone (DIZ)
1,Cc1c(CNC(=O)CCc2cn(C)c3ccc(Cl)cc23)c2cc(OC(F)(F)F)ccc2n1C,11 mm

# Tested on: Escherichia coli
# Test: Antibacterial activity against Escherichia coli […] assessed as growth inhibition after 16 to 18 hr by serial plate dilution method
# Format: functional
# Settings: not given
row,SMILES,MIC
1,Cc1c(CNC(=O)CCc2cn(C)c3ccc(Cl)cc23)c2cc(OC(F)(F)F)ccc2n1C,12.5 µg/mL

# Tested on: Candida albicans
# Test: Antifungal activity against Candida albicans assessed as growth inhibition at […] to […] ug/ml after 3 to 4 days by agar well diffusion method
# Format: functional
# Settings: not given
row,SMILES,diameter of the inhibition zone (DIZ)
1,Cc1c(CNC(=O)CCc2cn(C)c3ccc(Cl)cc23)c2cc(OC(F)(F)F)ccc2n1C,11 mm
2,Cc1cc(C2CCCCC2)n(O)c(=O)c1.NCCO [CICLOPIROX OLAMINE],20 mm

# Tested on: Klebsiella pneumoniae
# Format: functional
# Settings: not given
row,SMILES,diameter of the inhibition zone (DIZ)
1,Cc1c(CNC(=O)CCc2cn(C)c3ccc(Cl)cc23)c2cc(OC(F)(F)F)ccc2n1C,11 mm
2,O=C(O)c1cn(C2CC2)c2cc(N3CCNCC3)c(F)cc2c1=O [CIPROFLOXACIN],21 mm

# Tested on: Streptococcus pyogenes
# Format: functional
# Settings: not given
row,SMILES,diameter of the inhibition zone (DIZ)
1,Cc1c(CNC(=O)CCc2cn(C)c3ccc(Cl)cc23)c2cc(OC(F)(F)F)ccc2n1C,<10 mm
2,O=C(O)c1cn(C2CC2)c2cc(N3CCNCC3)c(F)cc2c1=O [CIPROFLOXACIN],23 mm
